What all share (assay): Cysteine liganding, probe competition
What all share (type): binding

In one test the target is T1, UniProt O14543 (Homo sapiens, UniProt O14543).
T1 construct: 200 μL of lysate containing 5 mg/ml proteome was treated with 2 μL of 100× compound stock; endogenous in cells
The text has this:
(§1) The following 96-well sample prep protocol was used for sample preparation.

A further test concerns the target T2, UniProt P36406 (Homo sapiens, UniProt P36406).
T2 construct: 200 μL of lysate containing 5 mg/ml proteome was treated with 2 μL of 100× compound stock; endogenous in cells
Description: as §1

A further test addresses T3, UniProt P49792 (Homo sapiens, UniProt P49792).
T3 construct: 200 μL of lysate containing 5 mg/ml proteome was treated with 2 μL of 100× compound stock; endogenous in cells
The settings on record: 500 uM.
Description: as §1

Another test deals with T4, UniProt Q9UPQ4 (Homo sapiens, UniProt Q9UPQ4).
T4 construct: 200 μL of lysate containing 5 mg/ml proteome was treated with 2 μL of 100× compound stock; endogenous in cells
T4 sequence (Q9UPQ4 1-493): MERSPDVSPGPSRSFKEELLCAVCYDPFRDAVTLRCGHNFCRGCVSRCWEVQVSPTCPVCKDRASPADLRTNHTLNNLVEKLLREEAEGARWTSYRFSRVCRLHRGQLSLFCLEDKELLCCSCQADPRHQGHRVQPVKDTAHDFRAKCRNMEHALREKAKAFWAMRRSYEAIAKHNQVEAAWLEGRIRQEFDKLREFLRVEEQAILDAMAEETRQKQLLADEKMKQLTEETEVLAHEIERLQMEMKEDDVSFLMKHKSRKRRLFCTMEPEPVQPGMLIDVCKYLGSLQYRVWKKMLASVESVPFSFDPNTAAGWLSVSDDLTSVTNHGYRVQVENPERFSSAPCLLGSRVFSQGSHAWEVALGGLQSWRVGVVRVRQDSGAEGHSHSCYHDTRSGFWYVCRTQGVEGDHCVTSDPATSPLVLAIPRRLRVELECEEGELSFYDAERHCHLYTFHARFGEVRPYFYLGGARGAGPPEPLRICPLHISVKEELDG
Description: as §1

The next test concerns the target T5, UniProt Q6IQ16 (Homo sapiens, UniProt Q6IQ16).
T5 construct: 200 μL of lysate containing 5 mg/ml proteome was treated with 2 μL of 100× compound stock; endogenous in cells
T5 sequence (Q6IQ16 1-392): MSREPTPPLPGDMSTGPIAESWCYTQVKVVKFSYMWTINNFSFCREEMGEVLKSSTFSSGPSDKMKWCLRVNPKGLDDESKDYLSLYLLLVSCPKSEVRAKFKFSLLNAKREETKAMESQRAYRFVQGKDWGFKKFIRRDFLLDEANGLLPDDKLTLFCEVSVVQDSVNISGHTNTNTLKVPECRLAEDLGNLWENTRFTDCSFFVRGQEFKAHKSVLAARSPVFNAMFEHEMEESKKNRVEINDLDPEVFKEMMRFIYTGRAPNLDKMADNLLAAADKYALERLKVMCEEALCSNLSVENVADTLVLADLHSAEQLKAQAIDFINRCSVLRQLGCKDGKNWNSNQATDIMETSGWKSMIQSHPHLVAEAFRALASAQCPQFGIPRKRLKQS
Description: as §1

A further test concerns the target T6, UniProt Q6ZMU5 (Homo sapiens, UniProt Q6ZMU5).
T6 construct: 200 μL of lysate containing 5 mg/ml proteome was treated with 2 μL of 100× compound stock; endogenous in cells
T6 sequence (Q6ZMU5 1-477): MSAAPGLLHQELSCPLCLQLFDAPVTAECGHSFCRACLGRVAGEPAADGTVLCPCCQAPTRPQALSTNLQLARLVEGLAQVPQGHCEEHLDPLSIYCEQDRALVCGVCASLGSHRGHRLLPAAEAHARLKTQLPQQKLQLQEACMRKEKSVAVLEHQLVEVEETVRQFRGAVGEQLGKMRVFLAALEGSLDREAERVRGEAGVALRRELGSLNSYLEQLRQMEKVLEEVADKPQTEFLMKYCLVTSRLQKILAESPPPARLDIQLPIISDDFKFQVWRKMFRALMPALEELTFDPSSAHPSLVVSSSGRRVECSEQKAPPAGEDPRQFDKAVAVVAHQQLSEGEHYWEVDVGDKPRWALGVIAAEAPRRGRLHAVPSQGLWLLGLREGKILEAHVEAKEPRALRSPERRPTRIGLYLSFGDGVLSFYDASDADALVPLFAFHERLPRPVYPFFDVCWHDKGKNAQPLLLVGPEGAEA
Description: as §1

For the next test, the target named is T7, UniProt Q7Z6J0 (Homo sapiens, UniProt Q7Z6J0).
T7 construct: 200 μL of lysate containing 5 mg/ml proteome was treated with 2 μL of 100× compound stock; endogenous in cells
T7 sequence (Q7Z6J0 1-888): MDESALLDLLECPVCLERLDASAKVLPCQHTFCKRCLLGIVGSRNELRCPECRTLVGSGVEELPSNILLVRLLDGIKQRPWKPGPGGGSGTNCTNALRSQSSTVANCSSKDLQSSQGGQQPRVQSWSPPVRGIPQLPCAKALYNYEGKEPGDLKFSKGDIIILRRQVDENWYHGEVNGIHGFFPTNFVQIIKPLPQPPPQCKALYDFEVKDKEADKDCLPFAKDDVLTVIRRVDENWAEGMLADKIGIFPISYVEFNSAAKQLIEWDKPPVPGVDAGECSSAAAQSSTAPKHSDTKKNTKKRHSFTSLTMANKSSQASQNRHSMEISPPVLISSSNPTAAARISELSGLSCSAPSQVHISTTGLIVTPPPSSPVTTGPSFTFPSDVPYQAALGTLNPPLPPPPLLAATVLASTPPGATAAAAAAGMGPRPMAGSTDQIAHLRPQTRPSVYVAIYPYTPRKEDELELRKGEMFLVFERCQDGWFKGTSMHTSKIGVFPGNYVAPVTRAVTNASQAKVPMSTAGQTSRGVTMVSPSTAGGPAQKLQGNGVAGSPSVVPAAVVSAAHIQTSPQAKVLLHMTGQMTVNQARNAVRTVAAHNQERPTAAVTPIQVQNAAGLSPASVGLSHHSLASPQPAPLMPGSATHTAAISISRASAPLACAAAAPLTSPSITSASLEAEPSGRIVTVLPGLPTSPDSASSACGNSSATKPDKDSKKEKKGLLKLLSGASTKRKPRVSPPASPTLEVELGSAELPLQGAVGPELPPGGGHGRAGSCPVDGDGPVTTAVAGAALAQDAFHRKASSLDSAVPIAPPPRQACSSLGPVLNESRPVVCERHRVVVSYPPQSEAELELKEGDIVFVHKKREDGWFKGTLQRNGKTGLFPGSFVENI
The settings on record: for inhibition at 100 µM: read-out: percent_inhibition.
Description: as §1

Where two headings read alike, the source gives them in different places.

T1 sequence (O14543 whole entry, change not shown): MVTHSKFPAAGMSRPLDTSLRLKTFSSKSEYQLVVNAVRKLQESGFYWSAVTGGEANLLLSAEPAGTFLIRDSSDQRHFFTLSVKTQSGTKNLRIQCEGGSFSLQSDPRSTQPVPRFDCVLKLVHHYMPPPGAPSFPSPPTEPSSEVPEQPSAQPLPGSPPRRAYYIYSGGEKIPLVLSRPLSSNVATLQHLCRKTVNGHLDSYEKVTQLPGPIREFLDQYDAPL
T3 sequence (P49792 whole entry, change not shown): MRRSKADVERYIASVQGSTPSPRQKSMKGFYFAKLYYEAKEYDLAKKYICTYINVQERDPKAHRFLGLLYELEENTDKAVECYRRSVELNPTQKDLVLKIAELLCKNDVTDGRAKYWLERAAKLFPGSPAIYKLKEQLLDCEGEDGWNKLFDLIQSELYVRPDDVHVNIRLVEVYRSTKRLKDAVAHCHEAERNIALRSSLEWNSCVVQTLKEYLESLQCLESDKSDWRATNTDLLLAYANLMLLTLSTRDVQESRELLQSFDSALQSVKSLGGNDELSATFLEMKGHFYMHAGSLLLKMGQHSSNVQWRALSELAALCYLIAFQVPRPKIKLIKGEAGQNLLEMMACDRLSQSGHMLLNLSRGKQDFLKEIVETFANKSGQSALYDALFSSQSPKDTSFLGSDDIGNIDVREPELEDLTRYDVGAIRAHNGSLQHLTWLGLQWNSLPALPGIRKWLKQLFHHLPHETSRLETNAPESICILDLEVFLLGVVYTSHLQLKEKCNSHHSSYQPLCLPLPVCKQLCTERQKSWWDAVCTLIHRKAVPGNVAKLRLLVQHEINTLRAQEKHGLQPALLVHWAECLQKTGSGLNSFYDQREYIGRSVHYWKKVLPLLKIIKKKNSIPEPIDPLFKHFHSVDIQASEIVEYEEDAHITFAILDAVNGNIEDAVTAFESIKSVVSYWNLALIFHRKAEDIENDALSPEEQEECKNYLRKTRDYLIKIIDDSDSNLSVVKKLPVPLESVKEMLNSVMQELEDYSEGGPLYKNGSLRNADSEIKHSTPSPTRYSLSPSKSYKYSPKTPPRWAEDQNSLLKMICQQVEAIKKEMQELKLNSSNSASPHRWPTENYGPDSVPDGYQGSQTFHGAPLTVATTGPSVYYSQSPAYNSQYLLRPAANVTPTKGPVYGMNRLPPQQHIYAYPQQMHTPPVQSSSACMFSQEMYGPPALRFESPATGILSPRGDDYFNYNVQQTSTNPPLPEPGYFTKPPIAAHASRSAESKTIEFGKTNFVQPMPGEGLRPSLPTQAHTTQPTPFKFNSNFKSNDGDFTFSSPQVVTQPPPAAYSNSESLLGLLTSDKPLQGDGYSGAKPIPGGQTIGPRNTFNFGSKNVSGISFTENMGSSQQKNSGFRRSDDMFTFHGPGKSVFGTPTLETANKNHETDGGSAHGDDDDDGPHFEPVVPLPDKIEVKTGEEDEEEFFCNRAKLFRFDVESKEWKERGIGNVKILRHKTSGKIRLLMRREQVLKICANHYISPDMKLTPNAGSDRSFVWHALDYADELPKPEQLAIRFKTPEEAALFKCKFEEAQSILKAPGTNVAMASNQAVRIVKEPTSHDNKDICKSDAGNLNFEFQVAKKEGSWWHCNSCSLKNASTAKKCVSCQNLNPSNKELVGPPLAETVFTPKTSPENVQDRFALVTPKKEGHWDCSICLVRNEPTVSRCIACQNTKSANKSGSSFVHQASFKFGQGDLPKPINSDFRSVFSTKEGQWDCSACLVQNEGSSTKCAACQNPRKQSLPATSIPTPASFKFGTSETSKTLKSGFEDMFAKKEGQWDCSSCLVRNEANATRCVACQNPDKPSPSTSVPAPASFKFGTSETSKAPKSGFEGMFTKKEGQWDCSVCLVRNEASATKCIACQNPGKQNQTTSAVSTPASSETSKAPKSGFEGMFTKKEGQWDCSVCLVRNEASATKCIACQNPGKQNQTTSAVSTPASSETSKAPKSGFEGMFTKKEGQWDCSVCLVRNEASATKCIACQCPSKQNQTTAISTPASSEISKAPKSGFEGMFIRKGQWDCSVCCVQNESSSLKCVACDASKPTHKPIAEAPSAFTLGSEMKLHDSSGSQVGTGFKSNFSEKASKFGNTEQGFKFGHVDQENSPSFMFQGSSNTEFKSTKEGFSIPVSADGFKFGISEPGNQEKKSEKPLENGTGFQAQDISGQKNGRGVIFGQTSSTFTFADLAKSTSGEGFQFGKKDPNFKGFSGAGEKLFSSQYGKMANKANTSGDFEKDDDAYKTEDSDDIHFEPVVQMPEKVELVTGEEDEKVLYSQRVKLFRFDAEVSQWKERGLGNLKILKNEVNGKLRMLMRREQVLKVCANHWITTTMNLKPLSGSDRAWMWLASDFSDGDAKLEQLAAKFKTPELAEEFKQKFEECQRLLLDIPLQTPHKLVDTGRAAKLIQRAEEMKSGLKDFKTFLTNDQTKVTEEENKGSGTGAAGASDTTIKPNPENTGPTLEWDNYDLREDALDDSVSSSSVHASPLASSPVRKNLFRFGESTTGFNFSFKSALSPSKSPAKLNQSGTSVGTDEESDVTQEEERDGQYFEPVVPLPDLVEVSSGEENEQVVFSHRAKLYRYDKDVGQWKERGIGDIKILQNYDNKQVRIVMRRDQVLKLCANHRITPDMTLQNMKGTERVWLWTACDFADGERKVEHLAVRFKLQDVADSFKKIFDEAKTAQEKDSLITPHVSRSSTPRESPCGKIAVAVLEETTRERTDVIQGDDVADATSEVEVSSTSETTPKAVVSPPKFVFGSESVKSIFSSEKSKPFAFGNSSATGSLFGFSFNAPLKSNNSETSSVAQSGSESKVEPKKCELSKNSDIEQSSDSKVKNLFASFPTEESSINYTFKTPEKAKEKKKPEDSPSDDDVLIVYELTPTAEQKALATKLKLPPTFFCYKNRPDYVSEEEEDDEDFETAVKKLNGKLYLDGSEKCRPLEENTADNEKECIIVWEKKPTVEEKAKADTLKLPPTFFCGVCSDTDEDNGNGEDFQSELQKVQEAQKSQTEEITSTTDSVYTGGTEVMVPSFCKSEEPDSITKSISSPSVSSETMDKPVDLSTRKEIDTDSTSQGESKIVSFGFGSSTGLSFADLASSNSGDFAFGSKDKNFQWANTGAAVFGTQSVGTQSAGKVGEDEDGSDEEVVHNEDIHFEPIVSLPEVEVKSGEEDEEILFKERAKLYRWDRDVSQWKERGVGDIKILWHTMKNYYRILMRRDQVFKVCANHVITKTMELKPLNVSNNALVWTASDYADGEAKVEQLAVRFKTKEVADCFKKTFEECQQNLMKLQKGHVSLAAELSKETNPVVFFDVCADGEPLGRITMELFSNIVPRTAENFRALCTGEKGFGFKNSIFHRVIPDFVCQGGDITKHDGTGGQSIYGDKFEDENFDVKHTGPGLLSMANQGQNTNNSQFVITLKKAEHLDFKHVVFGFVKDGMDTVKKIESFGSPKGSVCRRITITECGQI
T2 sequence (P36406 whole entry, change not shown): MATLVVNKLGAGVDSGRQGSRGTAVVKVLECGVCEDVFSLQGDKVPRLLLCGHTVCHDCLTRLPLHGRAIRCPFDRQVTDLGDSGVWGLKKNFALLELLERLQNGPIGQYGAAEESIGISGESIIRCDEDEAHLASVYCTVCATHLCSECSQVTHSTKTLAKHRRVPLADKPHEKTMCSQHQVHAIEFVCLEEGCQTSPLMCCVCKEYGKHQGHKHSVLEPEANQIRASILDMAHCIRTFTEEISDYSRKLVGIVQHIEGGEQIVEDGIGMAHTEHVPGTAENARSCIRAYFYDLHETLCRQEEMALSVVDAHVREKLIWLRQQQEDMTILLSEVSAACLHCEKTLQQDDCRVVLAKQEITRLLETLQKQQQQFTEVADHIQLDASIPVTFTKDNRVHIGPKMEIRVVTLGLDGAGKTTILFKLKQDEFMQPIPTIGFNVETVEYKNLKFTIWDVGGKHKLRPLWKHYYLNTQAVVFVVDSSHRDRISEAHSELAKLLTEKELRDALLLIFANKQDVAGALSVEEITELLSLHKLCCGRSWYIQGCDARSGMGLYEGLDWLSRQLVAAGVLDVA

On to `O=C(CCl)Nc1cc(C(F)(F)F)cc(C(F)(F)F)c1` [KBO3], for which the percent_inhibition at UniProt O14543 (100 uM) worked out at 91%. Besides, the “KB03_500 uM_percent_inhibition” value on UniProt P36406 (500 uM) is 17%; on UniProt P49792, 79%; at UniProt Q9UPQ4 (500 uM), 32%.

As for `COc1ccc2c(c1)CCCN2C(=O)CCl` [KB02], the inhibition at 100 µM on UniProt O14543 (read-out: percent_inhibition) came out at 40%; on UniProt Q6IQ16 (read-out: percent_inhibition) it was 16%; on UniProt Q6ZMU5 (read-out: KB02_100 uM_percent_inhibition) it was 36%; on UniProt Q7Z6J0, 42%; at UniProt Q9UPQ4 (100 uM, read-out: KB02_100 uM_percent_inhibition), 10%. Besides, on UniProt Q9UPQ4 (500 uM, read-out: KB02_500 uM_percent_inhibition), the inhibition at 500 µM worked out at 27%.

Consider `C=CC(=O)N(c1ccccc1)c1ccc(Br)cc1` [KB05], for which the inhibition at 500 µM was determined as 61% on UniProt P36406 (read-out: KB05_500 uM_percent_inhibition) and 44% at UniProt Q6IQ16 (500 uM, read-out: percent_inhibition). Further, the “KB05_500 uM_percent_inhibition” value at UniProt P49792 worked out at 75%. The figures for the inhibition at 100 µM at UniProt Q6IQ16 (read-out: percent_inhibition), on UniProt Q6ZMU5 (read-out: KB05_100 uM_percent_inhibition) and on UniProt Q7Z6J0 were 20%, 6% and 3%, respectively. The percent_inhibition at UniProt Q6IQ16 (500 uM) came out at 57%; on UniProt Q7Z6J0 (100 uM), 4%. Also, at UniProt Q6ZMU5 (100 uM), the “KB05_100 uM_percent_inhibition” value is recorded as 8%.
